Assay results from patent US5621133A (priority 1995, dated 1997).
Structures can show the parent of a compound that is named as a salt. Where two headings read alike, the source gives them in different places.

Key:
dopamine D-2 receptor = dopamine D-2 receptor (Rattus norvegicus, UniProt P61169); experiment: biochemical; assay type: binding; conditions: rat caudate, [125I]-p-aminophenylethyl spiroperidol; read-out: D-2 Ki
Protocol: Homogenized rat caudate was the source of the D-2 receptors. […] The molar affinity of the compound for the receptor binding site was calculated by the same method used for the D-1 receptor assay, assuming a competitive interaction between the compound and the radiolabeled ligand.

dopamine D-1 receptor [1] = target: T1, dopamine D-1 receptor (Rattus norvegicus, UniProt P18901); experiment: biochemical; conditions: D-1 Ki, rat caudate, [125I]SCH-23982
T1 sequence (P18901 whole entry): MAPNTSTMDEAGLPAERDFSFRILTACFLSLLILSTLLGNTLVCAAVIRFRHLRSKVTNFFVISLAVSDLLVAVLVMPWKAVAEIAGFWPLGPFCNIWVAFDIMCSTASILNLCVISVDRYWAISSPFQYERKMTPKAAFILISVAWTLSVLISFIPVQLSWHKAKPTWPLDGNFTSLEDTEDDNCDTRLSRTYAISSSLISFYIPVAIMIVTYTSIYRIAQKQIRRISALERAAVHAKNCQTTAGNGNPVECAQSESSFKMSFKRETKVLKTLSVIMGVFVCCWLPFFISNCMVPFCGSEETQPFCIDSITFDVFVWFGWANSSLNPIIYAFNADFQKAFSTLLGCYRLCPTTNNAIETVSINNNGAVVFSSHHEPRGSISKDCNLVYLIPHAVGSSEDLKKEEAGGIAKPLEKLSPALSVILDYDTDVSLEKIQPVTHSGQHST
From the text: (§1) The compounds compete with the radiolabeled ligand for occupancy of the receptors and the molar potency of each compound was quantified.
(§2) The Ki values are inversely proportional to the affinity of the compound for the receptor.

dopamine D-1 receptor [2] = conditions: for Intrinsic Activity (adenylate cyclase assay): dopamine = 100, goldfish retina or rat striatum; for EC50: read-out: EC50 (agonist activity in adenylate cyclase assay), tissue from goldfish retina or rat striatum
Protocol: In order to determine agonist activity, cell-free tissue homogenates are incubated in an ionic buffer solution containing ATP and the compound being evaluated. The tissue was obtained from either goldfish retina or rat striatum.

[3] = test system: striatal dopamine receptors; experiment: Rotation behavior assay of in vivo activity (6-hydroxydopamine lesioned rat rotational model); conditions: for ED50 s.c. (rotation behavior): injected subcutaneously
anesthetized dogs = experiment: Cardiovascular pharmacology - hemodynamic studies in anesthetized dogs; assay type: in vivo, dog (Beagle); conditions: cumulative intraaortic infusion above renal arteries; dose ranges (g/kg/min): 2A 3-10, 3 1-10, 35 1-3, 36 1-10, 37 1-30
Protocol: Male Beagle dogs were anesthetized with pentobarbital (30 mg/kg. i.v.) and maintained with i.v. infusion (Abbott/Shaw Life Care Pump, Model II/D) to maintain stable cardiovascular function. The dogs were […] with a cuffed endotracheal tube and ventilated with room air by means of a positive pressure respiratory pump. Expired respiratory CO2 was monitored with a Beckman LB-2 gas analyzer and maintained at 5% by appropriate pump adjustments. The dogs were maintained at a body temperature of 37.5°±1.0° C. with a thermostatically controlled animal table. Polyethylene catheters were placed in the abdominal aorta via the femoral and carotid arteries for blood pressure and left ventricular pressure recordings. A Swan-Ganz thermodilution catheter with a 15 cm proximal port was placed in the jugular vein for central venous and pulmonary arterial recordings and for determination of cardiac output (American Edwards Cardiac Output Computer, Model COM-1). Heart rate and electrocardiogram (ECG) recordings were made from a Lead II ECG connection. […] A calibrated electromagnetic flow probe (Carolina Medical Electronics) was positioned around the renal artery. The abdominal cavity is closed with wound clips. Recordings were made on a Grass polygraph. An additional small polyethylene catheter was inserted into a branch of the left femoral artery and the tip positioned in the aorta above the renal arteries. […] A thirty-fold dose-response-curve was administered by varying flow rate from 0.01 to 0.30 mL/minute.

dopamine D-1 receptor [4] = target: T1, dopamine D-1 receptor; conditions: read-out: D-1 Ki; rat caudate, [125I]SCH-23982
From the text: as §1, §2

[5] = test system: spontaneously hypertensive rats; experiment: Diuretic effects in spontaneously hypertensive rats; assay type: in vivo, rat; conditions: 3.0 mg/kg i.v., 2 hour interval
Protocol: Male, spontaneously hypertensive rats (SHR), weighing 285-350 grams were used to evaluate the diuretic effects of one of the compounds of the invention. Following an overnight fasting period with free access to drinking water, the rats received an intragastric fluid load of 0.9 saline at 5% of their body weight. Simultaneously with the load, the rats were dosed with a test compound or vehicle and placed individually in stainless steel metabolic cages where they had access to drinking water throughout the duration of the experiment. For intravenous administration, the rats were instrumented with indwelling cannulas placed into the jugular vein at least one week prior to the experiment.
Urine was collected at 2 and 4 hours following drug administration. The volume of excreted urine at each collection interval was measured accurately and the samples were analyzed for sodium, potassium and chloride ions. Sodium and potassium were measured using a Digital Readout Flame Photometer (Instrumentation Labs). Chloride was measured by the method of Shales and Shales, J Biol Chem 140:879 (1941). The statistical analysis of the data was computed by an off-line computer program. In this program, a comparison test is made between the vehicle (control) group and each treatment group for all variables at each time interval of the experiment. The test of statistical significance is based on the Student's t-test, where the calculated t is a measure of the probability density function.
A control group of six rats received 0.1 mg/kg of saline solution acidified by ascorbic acid (0.3 mL). This solution was also the vehicle for the test compound.

rats = conditions: cited from earlier work
Parkinson's Disease = conditions: cited from earlier work

Chain of dopamine D-2 receptor (P61169 whole entry): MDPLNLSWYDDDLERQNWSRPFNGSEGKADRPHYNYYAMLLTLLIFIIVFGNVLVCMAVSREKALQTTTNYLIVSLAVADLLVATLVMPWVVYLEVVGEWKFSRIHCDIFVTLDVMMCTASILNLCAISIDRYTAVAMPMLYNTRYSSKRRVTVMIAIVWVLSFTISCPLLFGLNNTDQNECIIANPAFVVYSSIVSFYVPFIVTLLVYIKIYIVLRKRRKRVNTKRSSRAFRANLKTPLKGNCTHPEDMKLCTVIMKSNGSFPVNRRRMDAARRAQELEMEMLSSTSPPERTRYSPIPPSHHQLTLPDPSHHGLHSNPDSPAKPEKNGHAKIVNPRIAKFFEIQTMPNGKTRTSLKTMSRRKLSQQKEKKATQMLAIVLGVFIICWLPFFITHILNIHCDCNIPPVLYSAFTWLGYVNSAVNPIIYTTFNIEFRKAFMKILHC

Ki (dopamine D-2 receptor) [µM] | Intrinsic Activity (adenylate cyclase assay) (dopamine D-1 receptor [2]) | EC50 (dopamine D-1 receptor [2]) [µM] | Ki (dopamine D-1 receptor [4]) [µM] | Structure (SMILES) | Max Decrease MAP (mean arterial blood pressure) (anesthetized dogs) [%] | Max Increase RBF (renal blood flow) (anesthetized dogs) [%] | ED50 s.c. (rotation behavior) [3] [µmol/kg] | also measured
0.76 | 66 | 0.01 | – | NC[C@H]1C[C@@H](c2ccccc2)Cc2c1ccc(O)c2O (relative stereo) [Example 35, [1,3-cis]1-Aminomethyl-5,6-dihydroxy-3-phenyl-1,2,3,4-tetrahydronaphthalene Hydrobromide] | 26 | 35 | – | Ki (dopamine D-1 receptor [1]): 0.03 µM; ED50 oral (rotation behavior) [3]: 21.4 µmol/kg
0.19 | 82 | 0.17 | 0.051 | C=CCNC[C@@H]1O[C@H](c2ccccc2)Cc2c1ccc(O)c2O (stereo in doubt) [Example 130] | – | – | 0.13 | ED50 oral (rotation behavior) [3]: 8 µmol/kg
> 10 | 56 | – | – | Br.NCC1=CC(c2ccccc2)Cc2c1ccc(O)c2O (stereo not drawn) [Example 2A, 1-Aminomethyl-5,6-dihydroxy-3-phenyl-3,4-dihydronaphthalene Hydrobromide] | 32 | 27 | – | Urine potassium ([5]; control 0.29, n = 6): 0.55 meq/kg; Urine sodium ([5]; control 1.60, n = 6): 2.35 meq/kg; Urine chloride ([5]; control 1.87, n = 6): 2.71 meq/kg; Urine volume ([5]; control 13.02, n = 6): 22.57 mL/kg
– | – | – | – | CC(=O)Oc1ccc2c(c1OC(C)=O)CC(c1ccccc1)C=C2CN.Cl (stereo not drawn) [Example 3, 5,6-Bis(acetoxy)-1-aminomethyl-3-phenyl-3,4-dihydronaphthalene Hydrochloride] | 8 | 83 | 0.91 | –
> 10 | 57 | 0.079 | – | Br.NCC1=CC(C2CCCCC2)Cc2c1ccc(O)c2O (stereo not drawn) [Example 36, 1-Aminomethyl-3-cyclohexyl-5,6-dihydroxy-3,4-dihydronaphthalene Hydrobromide] | 13 | 94 | 0.5 | Ki (dopamine D-1 receptor [1]): 0.2 µM; ED50 oral (rotation behavior) [3]: 170 µmol/kg
10 | 56 | 0.031 | – | Br.NC[C@@H]1C[C@H](C2CCCCC2)Cc2c1ccc(O)c2O [Example 37, [1R,3S]1-Aminomethyl-3-cyclohexyl-5,6-dihydroxy-1,2,3,4-tetrahydronaphthalene Hydrobromide] | 39 | 48 | – | Ki (dopamine D-1 receptor [1]): 0.057 µM
> 10 | 53 | 3.1 | 0.85 | CCNCC1=CC(c2ccccc2)Cc2c1ccc(O)c2O (stereo not drawn) [Example 153] | – | – | – | –
3.2 | 78 | 0.22 | 0.19 | CN1CCC2=C(C1)c1ccc(O)c(O)c1CC2c1ccccc1 (stereo not drawn) [Example 246] | – | – | 0.54 | –
1.8 | 75 | 0.03 | 0.02 | CN1CCC2=C(C1)c1ccc(O)c(O)c1CC2c1ccccc1 (stereo not drawn) [Example 247] | – | – | 0.014 | –
– | – | – | – | Oc1cc2c(cc1O)C(c1ccccc1)CNCC2 (stereo not drawn) [SKF 38393] | – | – | – | food intake (rats): decrease food intake
– | – | – | – | CC(C)C[C@H]1C(=O)N2CCC[C@H]2[C@]2(O)O[C@](NC(=O)[C@@H]3C=C4c5cccc6[nH]c(Br)c(c56)C[C@H]4N(C)C3)(C(C)C)C(=O)N12 [bromocryptine] | – | – | – | effect on L-DOPA requirement (Parkinson's Disease): lowers the amount of L-DOPA required to achieve the maximal therapeutic response
